What was measured:
[1] = assay type: physicochemical; conditions: 0.5% (w/v) aqueous solution; for coloring of the aqueous solution after the light irradiation: D65 fluorescent lamp 13,000 Lx; for decomposition after light irradiation: pH about 6.3-7.2, D65 fluorescent lamp 13,000 Lx, room temperature, 14 days
Protocol: A 0.5% (w/v) aqueous solution of pyridoxine 3-β-D-glucoside (pH 6.7) in a volume of 0.3 ml was enclosed in a 1-ml volume glass ampoule, and irradiated with a D65 fluorescent lamp (Toshiba) for 14 days. The irradiation was performed at room temperature with an illumination of 13,000 Lx. Samples before the irradiation and after 1 day, 7 days and 14 days of the irradiation were analyzed by HPLC to measure a pyridoxine 3-β-D-glucoside content. A solution of pyridoxine hydrochloride of the same concentration (adjusted to pH 6.7) was treated in the same manner, and the results were compared. The HPLC measurement conditions were as follows.
Column: Inertsil ODS-3 ([…], ([…], φ4.6×150 mm, GL Science Inc.)
Eluent acetonitrile:0.1% (v/v) trifluoroacetic acid, 5 mM sodium 1-hexanesulfonate=1:9
Column temperature: 40° C.
Aqueous solutions (0.5% (w/v)) of pyridoxine 3-β-D-glucoside hydrochloride, pyridoxal 3-β-D-glucoside, pyridoxamine 3-β-D-glucoside, pyridoxine 3-β-D-galactoside, and pyridoxine hydrochloride (adjusted to pH 6.3 to 7.2 with HCl or NaOH) were each sealed in a volume of 0.3 ml in a 1-ml volume glass ampoule, and light irradiation and HPLC quantification were performed in the same manner as in Test Example 1. […] Test Example 4 (thermal stability of pyridoxine 3-β-D-glucoside hydrochloride and various 3-glycosides) […]

[2] = Thermal stability of aqueous solution kept at 50° C., HPLC; assay type: physicochemical; conditions: 0.5% (w/v) aqueous solution; for coloring of the aqueous solution after the warming: 50° C. for 90 days; for decomposed by warming: pH about 6.3-7.2, 50° C. for 90 days
Protocol: A 0.5% (w/v) aqueous solution of pyridoxine 3-β-D-glucoside (pH 6.7) in a volume of 0.3 ml was sealed in a 1-ml volume glass ampoule, and kept at 50° C. under light shielding. The sample was warmed for 90 days, and analyzed during the warming by HPLC (analysis conditions were the same as those applied in Test Example 1) to measure a pyridoxine 3-β-D-glucoside content. A solution of pyridoxine hydrochloride of the same concentration (adjusted to pH 6.7) was treated in the same manner, and the results were compared.
Aqueous solutions (0.5% (w/v)) of pyridoxine 3-β-D-glucoside hydrochloride, pyridoxal 3-β-D-glucoside, pyridoxamine 3-β-D-glucoside, pyridoxine 3-β-D-galactoside, pyridoxine hydrochloride, pyridoxal hydrochloride, and pyridoxamine hydrochloride (adjusted to pH 6.3 to 7.2 with HCl or NaOH) were each sealed in a volume of 0.3 ml in a 1-ml volume glass ampoule, […] in the same manner as in Test Example 2.
0.5% (w/v) Aqueous solutions of pyridoxine 3,4′-cyclic sodium phosphate and pyridoxine hydrochloride (adjusted to pH 6.5 to 6.8) were each sealed in a volume of 0.3 ml in a 1-ml volume glass ampoule, and warming at 50° C. and HPLC analysis were performed in the same manner as in Test Example 2.

hairless mouse = conditions: 2% sample applied on the back 90 minutes before ultraviolet irradiation, 2 hours, 5 times/week, ten weeks; positive control DETAPAC
Protocol: It was evaluated whether or not the sample prepared by the following preparing method suppressed wrinkle formation caused by ultraviolet irradiation.
DETAPAC was used as a positive control.
Mice (10-week old) in each group consisting of 8 mice were applied with each of the aforementioned samples on the back 90 minutes before ultraviolet irradiation, and irradiated with ultraviolet rays of a fixed quantity (Toshiba FL20 S-BLB lamp) for 2 hours (5 times/week) over ten weeks to examine suppressing effect on wrinkle formation.
Wrinkle formation after the ultraviolet irradiation of ten weeks was graded in accordance with the “skin photoaging grades” mentioned below. The results were indicated as averages of the scores for eight mice.

mouse B16 melanoma cells [3] = assay: Test for melanin production suppression and cell survival rate in cultured cells; assay type: cell-based; set-up: key to Evaluation (whitening degree of B16 melanoma cells): +: whitening effect comparable to that of the control; ±: whitening effect a little weaker than that of the control; ×: no effect; −: test was not performed; conditions: for Evaluation (whitening degree of B16 melanoma cells): control 100 μg/ml kojic acid; for Cell growth rate: relative to control taken as 100%; for suppressing effect on melanin production: overall conclusion from the tables
Protocol: Cultured mouse B16 melanoma cells were used. An appropriate amount of MEM medium containing 10% FBS was added to wells of two 6-well plates, and the B16 melanoma cells were inoculated, and incubated at 37° C. with 5 volume % CO2. On the next day, a sample-containing solution was added so that the medium contained the vitamin B6 derivative (pyridoxine 3-β-D-glucoside or pyridoxine 3-β-D-glucoside hydrochloride) at a final solid concentrations shown in FIG. 20, and then mixed. On the 5th day of the culture, the medium was exchanged, and the sample-containing solution was again added. On the next day, the medium was removed, and for one plate, the cells were washed with phosphate buffer (pH 7.0), and then collected. Then, whitening degree of the cultured B16 melanoma cells was evaluated according to the criteria mentioned below by using 100 μg/ml kojic acid as a control. […] The cell growth rate is indicated with a relative ratio based on that of the control, which is taken as 100%.

mouse B16 melanoma cells [4] = assay: Melanin production suppression by combination with whitening agent (arbutin); assay type: cell-based; conditions: substance and arbutin each 100 μM, 5 days culture, intracellular melanin relative to solvent control
Protocol: Cultured mouse B16 melanoma cells were used. A vitamin B6 derivative (pyridoxine 3-β-D-glucoside) and arbutin (Wako Pure Chemical Industries) dissolved in purified water at given concentrations were each added to the medium at a concentration of 100 μM. With exchanges of the medium during the culture, the cells were cultured for 5 days, and then collected. The cell number was counted, and then intracellular melanin was quantified. As a control added with a solvent, the medium added with purified water was used. Based on the amount of the melanin observed for the control added with the solvent, which was taken as 1, the relative amount of intracellular melanin observed for each sample concentration was considered a melanin production ratio.

[5] = 50° C., in pharmaceutical preparations; cited from earlier work
[6] = final concentration 333.3 μg/mL

Row | coloring of the aqueous solution after the light irradiation [1] | coloring of the aqueous solution after the warming [2] | decomposed by warming [2] | decomposition after light irradiation [1] | Compound | further results
1 | no coloring was observed | no coloring was observed | almost no decomposition | – | Cc1ncc(CO)c(C=O)c1O[C@@H]1O[C@H](CO)[C@@H](O)[C@H](O)[C@H]1O [pyridoxal 3-β-D-glucoside, Pyridoxal 3-β-D-glucoside] | –
2 | – | colored in yellow | ~55% | – | Cc1ncc(CO)c(C=O)c1O.Cl [pyridoxal hydrochloride, reference compound] | –
3 | no coloring was observed | no coloring was observed | almost no decomposition | not observed | Cc1ncc(CO)c(CN)c1O[C@@H]1O[C@H](CO)[C@@H](O)[C@H](O)[C@H]1O [pyridoxamine 3-β-D-glucoside, Pyridoxamine 3-β-D-glucoside] | –
4 | – | colored in yellow | ~85% | – | Cc1ncc(CO)c(CN)c1O.Cl [pyridoxamine hydrochloride, reference compound] | –
5 | – | no coloring was observed | almost no decomposition | no decomposition was observed | Cc1ncc(CO)c2c1OP(=O)([O-])OC2.[Na+] [pyridoxine 3,4′-cyclic sodium phosphate, Pyridoxine 3,4′-cyclic sodium phosphate] | –
6 | no coloring was observed | no coloring was observed | almost no decomposition | not observed | Cc1ncc(CO)c(CO)c1O[C@@H]1O[C@H](CO)[C@H](O)[C@H](O)[C@H]1O [pyridoxine 3-β-D-galactoside, Pyridoxine 3-β-D-galactoside] | –
7 | no coloring was observed | no coloring was observed | almost no decomposition | not observed | Cc1ncc(CO)c(CO)c1O[C@@H]1O[C@H](CO)[C@@H](O)[C@H](O)[C@H]1O.Cl [pyridoxine 3-β-D-glucoside hydrochloride] | suppressing effect on wrinkle formation (skin photoaging grades) (hairless mouse): comparable to or higher than that of DETAPAC; Evaluation (whitening degree of B16 melanoma cells) (mouse B16 melanoma cells [3]; final concentration 100 μg/mL): ×; Cell growth rate (mouse B16 melanoma cells [3]; final concentration 100 μg/mL): 100%; Evaluation (whitening degree of B16 melanoma cells) (mouse B16 melanoma cells [3]; [6]): ×; Cell growth rate (mouse B16 melanoma cells [3]; [6]): 100%; Evaluation (whitening degree of B16 melanoma cells) (mouse B16 melanoma cells [3]; final concentration 1000 μg/mL): ×; Cell growth rate (mouse B16 melanoma cells [3]; final concentration 1000 μg/mL): 97%; Evaluation (whitening degree of B16 melanoma cells) (mouse B16 melanoma cells [3]; final concentration 3333 μg/mL): +; Cell growth rate (mouse B16 melanoma cells [3]; final concentration 3333 μg/mL): 87%; suppressing effect on melanin production (mouse B16 melanoma cells [3]): superior suppressing effect on melanin production
8 | no coloring was observed | no coloring was observed | almost no decomposition | not observed | Cc1ncc(CO)c(CO)c1O[C@@H]1O[C@H](CO)[C@@H](O)[C@H](O)[C@H]1O [pyridoxine 3-β-D-glucoside, Pyridoxine 3-β-D-glucoside] | suppressing effect on melanin production in combination with arbutin (mouse B16 melanoma cells [4]): superior suppressing effect on melanin production; Evaluation (whitening degree of B16 melanoma cells) (mouse B16 melanoma cells [3]; final concentration 10 μg/mL): ×; Cell growth rate (mouse B16 melanoma cells [3]; final concentration 10 μg/mL): 101%; Evaluation (whitening degree of B16 melanoma cells) (mouse B16 melanoma cells [3]; final concentration 30 μg/mL): ×; Cell growth rate (mouse B16 melanoma cells [3]; final concentration 30 μg/mL): 101%; Evaluation (whitening degree of B16 melanoma cells) (mouse B16 melanoma cells [3]; final concentration 100 μg/mL): ×; Cell growth rate (mouse B16 melanoma cells [3]; final concentration 100 μg/mL): 101%; Evaluation (whitening degree of B16 melanoma cells) (mouse B16 melanoma cells [3]; final concentration 300 μg/mL): ±; Cell growth rate (mouse B16 melanoma cells [3]; final concentration 300 μg/mL): 101%; Evaluation (whitening degree of B16 melanoma cells) (mouse B16 melanoma cells [3]; final concentration 1000 μg/mL): +; Cell growth rate (mouse B16 melanoma cells [3]; final concentration 1000 μg/mL): 102%; suppressing effect on melanin production (mouse B16 melanoma cells [3]): superior suppressing effect on melanin production
9 | – | – | – | – | Cc1ncc(CO)c(CO[C@H]2O[C@H](CO)[C@@H](O)[C@H](O)[C@H]2O)c1O [pyridoxine 4′-α-D-glucoside] | long term stability compared with pyridoxine hydrochloride [5]: superior long term stability
10 | – | – | – | no decomposition was observed | N-(4-pyridoxylmethylene)-L-serine 3-β-D-glucoside | –

Reference: patent publication US8003615B2, “Stable vitamin B6 derivative” (Daiichi Fine Chemical Co., Ltd., priority 2003, dated 2011)
